Reference: ChEMBL document CHEMBL2157932, “Synthesis and pharmacological evaluation of carbamic acid 1-phenyl-3-(4-phenyl-piperazine-1-yl)-propyl ester derivatives as new analgesic agents” (Bioorg Med Chem Lett, 2012)
Active and inactive are the calls of the source. The rule behind the calls is not given here.

Assays:
[1] = biological target: 5-hydroxytryptamine receptor 2A (Rattus norvegicus, UniProt P14842); test: Displacement of [3H]-ketanserin from 5HT2A receptor in rat cortical membrane; assay type: cell membranes
5-hydroxytryptamine receptor 2A, sequence (P14842 whole entry): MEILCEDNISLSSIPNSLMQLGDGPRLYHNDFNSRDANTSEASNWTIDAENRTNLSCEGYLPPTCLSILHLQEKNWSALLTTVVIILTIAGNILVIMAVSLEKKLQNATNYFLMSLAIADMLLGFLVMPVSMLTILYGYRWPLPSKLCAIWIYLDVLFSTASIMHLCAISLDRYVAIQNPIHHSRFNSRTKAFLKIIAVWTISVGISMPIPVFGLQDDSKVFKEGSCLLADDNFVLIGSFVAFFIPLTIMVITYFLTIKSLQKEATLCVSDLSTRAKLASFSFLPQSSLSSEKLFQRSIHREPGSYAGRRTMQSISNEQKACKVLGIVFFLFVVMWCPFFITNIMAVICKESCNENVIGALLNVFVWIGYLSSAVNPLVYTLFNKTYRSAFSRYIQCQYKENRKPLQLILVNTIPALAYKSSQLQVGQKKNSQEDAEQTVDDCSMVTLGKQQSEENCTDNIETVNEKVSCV

[2] = biological target: T1, 5-hydroxytryptamine receptor 1A (Rattus norvegicus, UniProt P19327); test: Displacement of [3H]-8-OH-DPAT from 5HT1A receptor in rat hippocampus; assay type: tissue-based
T1 sequence (P19327 whole entry): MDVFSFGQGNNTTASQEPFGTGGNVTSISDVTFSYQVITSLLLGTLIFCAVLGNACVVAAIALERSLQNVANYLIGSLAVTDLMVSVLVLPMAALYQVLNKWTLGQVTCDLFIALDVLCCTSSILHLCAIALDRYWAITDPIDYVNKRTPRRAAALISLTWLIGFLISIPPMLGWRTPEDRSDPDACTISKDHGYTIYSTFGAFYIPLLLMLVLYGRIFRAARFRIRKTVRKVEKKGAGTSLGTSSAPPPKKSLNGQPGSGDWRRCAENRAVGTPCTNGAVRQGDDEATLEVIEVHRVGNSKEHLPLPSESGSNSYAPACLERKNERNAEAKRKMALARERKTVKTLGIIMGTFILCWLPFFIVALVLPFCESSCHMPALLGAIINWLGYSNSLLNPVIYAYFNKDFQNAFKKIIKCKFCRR

[3] = tested on: Mus musculus; test: Analgesic activity in ip dosed mouse assessed as inhibition of acetic acid-induced writhing response administered 0.5 to 1 hr before acetic acid challenge; assay type: functional
[4] = tested on: Mus musculus; test: Neurotoxicity in mouse at 20 mg/kg, ip by rotarod test; assay type: toxicity, organism-based; parameters: dose 20 mg/kg, route intraperitoneal; conditions: in vivo
[5] = tested on: Mus musculus; test: Analgesic activity in mouse assessed as inhibition of acetic acid-induced writhing response at 10 mg/kg, po administered 0.5 to 1 hr before acetic acid challenge; assay type: functional
[6] = tested on: Mus musculus; test: Analgesic activity in mouse assessed as inhibition of acetic acid-induced writhing response at 10 mg/kg, ip administered 0.5 to 1 hr before acetic acid challenge; assay type: functional; conditions: route intraperitoneal
[7] = biological target: T2, 5-hydroxytryptamine receptor 1A (Rattus norvegicus) (UniProt P19327); test: Displacement of [3H]-8-OH-DPAT from 5HT1A receptor in rat hippocampus at 1 uM; assay type: tissue-based
T2 sequence (whole entry): T1 sequence (P19327 whole entry)

[8] = biological target: 5-hydroxytryptamine receptor 2A (Rattus norvegicus) (UniProt P14842); test: Displacement of [3H]-ketanserin from 5HT2A receptor in rat cortical membrane at 1 uM; assay type: cell membranes
5-hydroxytryptamine receptor 2A (Rattus norvegicus), sequence (P14842 whole entry): as the sequence (P14842 whole entry) above

[9] = Neurotoxicity in po dosed mouse by rotarod test; assay type: toxicity, organism-based; conditions: in vivo
[10] = Half life in human liver microsomes by LC/MS/MS; assay type: ADME, Microsome
[11] = tested on: Mus musculus; test: Analgesic activity in po dosed mouse assessed as inhibition of acetic acid-induced writhing response administered 0.5 to 1 hr before acetic acid challenge; assay type: functional
[12] = tested on: Mus musculus; test: Neurotoxicity in mouse at 50 mg/kg, ip by rotarod test; assay type: toxicity, organism-based; parameters: dose 50 mg/kg, route intraperitoneal; conditions: in vivo
[13] = tested on: Mus musculus; test: Antinociceptive activity in mouse up to 100 mg/kg, ip by hot plate test; assay type: functional, organism-based; parameters: dose 100 mg/kg
[14] = tested on: Mus musculus; test: Antinociceptive activity in late phase ip dosed mouse by formalin test; assay type: functional
[15] = tested on: Mus musculus; test: Antinociceptive activity in late phase po dosed mouse by formalin test; assay type: functional
[16] = tested on: Rattus norvegicus; test: Antiinflammatory activity in rat persistent inflammatory pain model assessed as inhibition of carrageenan-induced mechanical hyperalgesia at 100 mg/kg, po; assay type: functional
[17] = tested on: Mus musculus; test: Antinociceptive activity in po dosed mouse by hot plate test; assay type: functional
[18] = tested on: Rattus norvegicus; test: Antiinflammatory activity in po dosed rat persistent inflammatory pain model assessed as inhibition of carrageenan-induced mechanical hyperalgesia; assay type: functional

| SMILES | inhibition in vivo at 10 mg/kg [5] | inhibition [7] | inhibition [8] | other results |
| --- | --- | --- | --- | --- |
| Cc1cccc(N2CCN(CCC(OC(N)=O)c3ccccc3)CC2)c1 (single isomer, unassigned) |  |  |  | IC50 [1]: 0.0925 µM; IC50 [2]: 0.0596 µM |
| NC(=O)OC(CCN1CCN(c2ccc(F)cc2)CC1)c1ccccc1 (single isomer, unassigned) | 88% |  |  | ED50 [3]: 0.55 mg/kg; IC50 [2]: 10.5 µM; Activity [4]: Toxic |
| NC(=O)OC(CCN1CCN(c2ccc(Cl)cc2)CC1)c1ccccc1 (single isomer, unassigned) |  |  |  | inhibition in vivo at 10 mg/kg [6]: 52% |
| NC(=O)OC(CCN1CCN(c2ccc(C(F)(F)F)cc2)CC1)c1ccccc1 (single isomer, unassigned) |  |  |  | IC50 [1]: 2.11 µM; IC50 [2]: 7.22 µM |
| Cc1ccc(N2CCN(CCC(OC(N)=O)c3ccccc3)CC2)cc1 (single isomer, unassigned) |  |  |  | IC50 [1]: 0.369 µM; IC50 [2]: 1.28 µM |
| Cc1ccc(N2CCN(CCC(OC(N)=O)c3ccccc3)CC2)c(C)c1 (single isomer, unassigned) | 34% |  |  |  |
| COc1ccc(N2CCN(CCC(OC(N)=O)c3ccccc3)CC2)c(OC)c1 (single isomer, unassigned) | 19% |  |  |  |
| NC(=O)OC(CCN1CCN(c2ccccc2O)CC1)c1ccccc1 (single isomer, unassigned) | 37% |  |  |  |
| NC(=O)OC(CCN1CCN(c2ccc(C(F)(F)F)cc2[N+](=O)[O-])CC1)c1ccccc1 (single isomer, unassigned) | 50% |  |  |  |
| NC(=O)OC(CCN1CCN(c2ccc(Cl)c(C(F)(F)F)c2)CC1)c1ccccc1 (single isomer, unassigned) | 52% |  |  |  |
| COc1cc(OC)cc(N2CCN(CCC(OC(N)=O)c3ccccc3)CC2)c1 (single isomer, unassigned) | 13% |  |  |  |
| Cc1cccc(C)c1N1CCN(CCC(OC(N)=O)c2ccccc2)CC1 (single isomer, unassigned) | 48% |  |  |  |
| NC(=O)OC(CCN1CCN(c2ccc(OC(F)(F)F)cc2)CC1)c1ccccc1 (single isomer, unassigned) | 18% |  |  |  |
| NC(=O)OC(CCN1CCN(c2ccc(F)cc2)CC1)c1ccc(F)cc1 (single isomer, unassigned) | 52% | 60.9% | 93.9% |  |
| NC(=O)OC(CCN1CCN(c2ccc([N+](=O)[O-])cc2)CC1)c1ccc(F)cc1 (single isomer, unassigned) | 70% | 29.6% | 29.6% | TD50 [9]: 97.8 mg/kg |
| NC(=O)OC(CCN1CCN(c2ccc(O)cc2)CC1)c1ccc(F)cc1 (single isomer, unassigned) |  |  |  | half-life [10]: 2.48 h |
| NC(=O)OC(CCN1CCN(c2ccccc2)CC1)c1ccc(Cl)cc1 (single isomer, unassigned) |  | 64.6% | 84.6% | ED50 [11]: 2.1 mg/kg; half-life [10]: 0.25 h |
| NC(=O)OC(CCN1CCN(c2ccccc2)CC1)c1cccc([N+](=O)[O-])c1 (single isomer, unassigned) | 48% | 74.6% | 86.4% | inhibition in vivo at 10 mg/kg [6]: 100% |
| NC(=O)OC(CCN1CCN(c2ccccc2)CC1)c1ccc([N+](=O)[O-])cc1 (single isomer, unassigned) | 91.2% | 81.4% | 88% | Activity [12]: Toxic; inhibition in vivo at 10 mg/kg [6]: 100%; TD50 [9]: 53.4 mg/kg |
| CC(C)(C)c1ccc(C(CCN2CCN(c3ccccc3)CC2)OC(N)=O)cc1 (single isomer, unassigned) | 62% | 44.4% | 98.8% |  |
| NC(=O)OC(CCN1CCN(c2ccccc2)CC1)c1cccc(Cl)c1 (single isomer, unassigned) | 59% | 76.4% | 93.7% | inhibition in vivo at 10 mg/kg [6]: 100% |
| COc1ccc(C(CCN2CCN(c3ccccc3)CC2)OC(N)=O)cc1 (single isomer, unassigned) | 43% | 67.7% | 82% | Activity [12]: Toxic; inhibition in vivo at 10 mg/kg [6]: 100% |
| O=C(c1ccccc1)c1ccc2n1CCC2C(=O)O (configuration not stated) [KETOROLAC] |  |  |  | Activity [13]: inactive; ED50 [14]: 12.9 mg/kg; ED50 [15]: 17.9 mg/kg; inhibition in vivo at 100 mg/kg [16]: 36.4% |
| CN1CC[C@]23c4c5ccc(O)c4O[C@H]2[C@@H](O)C=C[C@H]3[C@H]1C5 [MORPHINE] |  |  |  | ED50 [3]: 0.96 mg/kg; ED50 [17]: 13.5 mg/kg; ED50 [15]: 9.15 mg/kg; ED50 [18]: 0.6 mg/kg; ED50 [11]: 5.57 mg/kg |
